# Measured values reported in patent US9248098B2, “Treating or preventing pain using spicamycin derivatives” (DARA BIOSCIENCES, INC., priority 2008, dated 2016).
# Legend:
# [1] = tested on: rat models of neuropathic pain; conditions: Abdi et al. 2000; Kobierski et al. 2003; cited from earlier work
# [2] = tested on: patients with end-stage cancer experiencing neuropathic pain; test: Phase 2 placebo-controlled study of KRN5500, safety; type: in vivo, human
# Method: (§1) A Phase 2, multicenter, placebo-controlled, randomized, parallel group study was carried out to evaluate the safety, efficacy, and dose-response of KRN5500 in patients with end-stage cancer experiencing neuropathic pain. Nineteen (19) patients were enrolled in the study. Thirteen were randomized to receive KRN5500 and 6 were randomized to receive placebo. Due to a randomization error at an investigative site, one patient randomized to receive KRN5500 actually received placebo. Of the 12 patients who received KRN5500, 3 (25%) completed all dosing visits. Two (28.6%) of the patients who received placebo completed all dosing visits. No patients were lost to follow up and no patients died.
# (§2) The median duration of exposure to KRN5500 was 40 days compared to 29 days for placebo. On average, KRN5500 patients took 5.3 doses while placebo patients took 4.4 doses. The highest dose received was 2.2 mg/m^2. Seven (58.3%) of KRN5500 patients were exposed to at least one dose at this level, while 4 (57.1%) of Placebo patients were exposed to at least one dose at this level.
# All patients treated with KRN5500 (100%) had at least one treatment emergent adverse event, compared to 86% (6 of 7 patients) in the Placebo treated group. Events recorded by the KRN5500 patients tended to be more severe (84% moderate or severe in KRN5500 vs. 71% in Placebo). Events were typically gastrointestinal disorders such as nausea or vomiting and were more frequently considered to be related to treatment in the KRN5500 group than in the Placebo group (92% vs. 14%). Three patients (25%) in the KRN5500 group and 1 (14%) patient in the Placebo group experienced serious adverse events (AEs). […] Two patients treated with KRN5500 withdrew from the study due to nausea and vomiting which were thought to be related to study drug. One patient treated with KRN5500 withdrew due to convulsions not thought to be related to study drug. One patient treated with Placebo withdrew from the study due to a stroke not related to study drug.
# [3] = tested on: patients with end-stage cancer experiencing neuropathic pain; test: Phase 2 placebo-controlled study of KRN5500, efficacy on neuropathic pain; type: in vivo, human; conditions: for median decrease from baseline in pain intensity, clinic numeric rating scale (NRS) scores: placebo median change zero
# Method: as §1
# The treatment groups were similar in demographics, with the majority of patients being Caucasian (73.7%) and approximately 50/50 in distribution by gender. The median age of patients enrolled was 62 years, ranging from 41 to 84 years. The average body surface area (BSA) was 1.8 m^2 ranging from 0.95 to 2.27 m^2. The majority of the patient population had allodynia (84.2%). This and other baseline characteristics of neuropathic pain were consistent between the treatment groups.
# as §2
# Pain intensity, based on clinic numeric rating scale (NRS) scores, was analyzed for both the Intent-to-treat (ITT) and modified efficacy (ME) populations. […] Since more than 80% of patients had allodynia as a baseline characteristic, results from the analysis of the subset of patients with allodynia present at baseline was consistent with the overall analysis. Too few patients presented without allodynia at baseline to adequately draw conclusions in this subset. […] Three (25%) of the KRN5500 treated patients achieved 33% or greater pain decrease and none of the placebo patients achieved this level.
# [4] = of 12 patients who received KRN5500
# [5] = brief pain inventory, no change in placebo
# [6] = neuropathic pain questionnaire, versus placebo
smiles,measurement,setting,value
"CCCCCCCCC/C=C/C=C/C(=O)NCC(=O)N[C@@H]1[C@@H](O)[C@@H](O)[C@@H](Nc2ncnc3[nH]cnc23)O[C@H]1[C@@H](O)CO [KRN5500, 6-[4-deoxy-4-[(2E,4E)-tetradecadienoylglycyl}amino-L-glycero-β-L-mannoheptopyranosyl]amino-9H-purine]",efficacy in rat models of neuropathic pain,[1],effective
same,incidence of nausea and vomiting,[2]; generally considered related to study drug,High incidences of nausea and vomiting
same,deaths,[2]; in vivo,No deaths were observed
same,relation of serious AEs to study drug,[2]; in vivo,None were considered to be related to study drug
same,patients withdrawn due to convulsions not thought to be related to study drug,[2]; [4],One
same,patients withdrawn due to nausea and vomiting thought to be related to study drug,[2]; [4],Two
same,adverse events moderate or severe,[2]; placebo 71%,84%
same,patients with at least one treatment emergent adverse event,[2]; placebo 86% (6 of 7 patients),100%
same,patients experiencing serious adverse events (AEs),"[2]; three patients, placebo 1 (14%)",25%
same,"clinically significant laboratory abnormalities, changes in vital signs, physical examinations, or ECGs",[2]; throughout the study,not observed
same,adverse events considered to be related to treatment,"[2]; typically gastrointestinal disorders such as nausea or vomiting, placebo 14%",92%
same,aggregated physical and mental SF-12 scores,[3]; 1 week post-dose follow up,basically unchanged from baseline
same,dose response at last dose received (Endpoint),[3]; ITT or ME population analysis,no trend for dose response
same,"median decrease from baseline in pain intensity, clinic numeric rating scale (NRS) scores",[3]; Intent-to-treat (ITT) population,22%
same,significance of decrease in pain intensity (clinic NRS),"[3]; Wilcoxon Rank Sum test of the medians, ME analysis, p=0.03",statistically significant decrease
same,dynamic and cold allodynia assessment,"[3]; affected and unaffected areas, versus placebo",larger decrease in pain associated with both touch and cold
same,BPI: aggregate measure of pain's interference in the last 24 hours,[3]; [5],decreases from baseline
same,BPI: patient perception of pain at its least in the past 24 hours,[3]; [5],decreases from baseline
same,patients with a 20% or greater reduction in pain intensity,"[3]; diary endpoint, 5 of KRN5500 treated patients, placebo 1 (14%)",42%
same,"median decrease from baseline in pain intensity, clinic numeric rating scale (NRS) scores",[3]; modified efficacy (ME) population,23.6%
same,"NPQ individual questions: burning pain, electric pain and freezing pain",[3]; [6],decreases from baseline in favor of KRN5500
same,"NPQ questions: sensitivity to touch, shooting pain, numbness, tingling, or squeezing pain",[3]; [6],no different between treatment groups
same,NPQ: increased pain due to touch or to weather changes,[3]; [6],no treatment differences
same,"best pain intensity response (largest decrease in pain) recorded in clinic over all doses, median decrease",[3]; placebo showed no decrease,29.3%
same,median decrease in pain intensity based on diary data,[3]; placebo showed no decrease,16.4%
same,SPQ: brush/touch induced pain scores,[3]; supplemental pain questionnaire,greater decrease in pain scores than the Placebo treated patients
same,SPQ: cold induced pain,"[3]; supplemental pain questionnaire, at endpoint, both groups decreased",no treatment differences
same,patients achieving 33% or greater pain decrease,"[3]; three KRN5500 treated patients, none of the placebo patients",25%
same,Karnofsky Performance Status (KPS),"[3]; throughout the study, baseline median 75",did not change throughout the study
